# Experiments:
# Assay type in all cases: cell-based
# [1] = tested on: β-catenin/TCF-responsive TOPFlash reporter; experiment: TOPFlash reporter assay in H9 human ESCs; conditions: 24 h
# Procedure: (A) TOPFlash™ assay in H9 human ESCs subjected to the indicated treatments for 24 h. Data represent mean±s.d. of three biological replicates. (B) Representative phase contrast and alkaline phosphatase (AP) staining images of H9 human ESCs cultured in the indicated conditions for 3 passages. (C) Phase contrast images of H9 human ESCs cultured in CHIR/XAV or CHIR/IWR-1 for 11 passages. (D) Colony forming efficiency assay of H9 human ESCs cultured in FGF2 or CHIR/IWR-1 conditions. Data represent mean±s.d. of three biological replicates. Right panel: a representative image showing AP staining of colonies formed from H9 human ESCs cultured in either FGF2 or CHIR/IWR-1 condition. (E) Human ESCs cultured in CHIR/IWR-1 for 11 passages were immunostained with the indicated antibodies. (F) Embryoid bodies (EBs) were generated from H9 human ESCs cultured in CHIR/IWR-1 for 11 passages. The outgrowths of EBs were immunostained with the indicated antibodies. (G) H&E staining of teratomas generated from H9 ESCs cultured in CHIR/IWR-1 for 20 passages. (H) Western blot analysis of Axin1 and Axin2 expression in HES3 human ESCs treated with the indicated cytokines/inhibitors for 24 h. (I) Immunofluorescence images of H9 human ESCs (passage 5 in CHIR) overexpressing Flag-tagged Axin2. (J) Representative phase contrast and immunofluorescence images of HES2 human ESCs overexpressing ΔNβ-catenin-ERT2 at passage 5 in basal medium only. These cells were cultured in basal medium only for more than 10 passages and remained morphologically undifferentiated. (K) Phase contrast images of HES2 human ESCs overexpressing ΔNβ-catenin (left panel, passage 2 in basal medium/FGF2) or ΔNβ-catenin/A295W/I296W mutant (right panel, passage 5 in basal medium only). Scale bars, 50 μm (B, C, E-G, and I-K). (L) Model of mouse EpiSC and human ESC self-renewal mediated by β-catenin. In the absence of Wnt or GSK3 inhibitor, a β-catenin destruction complex, containing Axin1, GSK3, and APC is formed, leading to the degradation of β-catenin and differentiation (left). In the presence of Wnt or GSK3 inhibitor, β-catenin is stabilized and can initiate cellular responses related to both self-renewal and differentiation. Stabilized β-catenin induces differentiation when it translocates into the nucleus and binds TCFs to activate downstream targets (middle). Addition of XAV or IWR-1 stabilizes Axin2. […]
# For quantifying relative Oct3/4 enhancer activities, pGL3-Oct4 DE and pGL3-Oct4 PE plasmids (gifts from Hans Schöler's lab) were co-transfected with the Renilla vector, using the Amaxa™ Transfection Kit (Lonza). […] For quantifying relative β-catenin/Tcf transcriptional activity, pGL2-SuperTOP™ plasmid (gift from Randall Moon) was co-transfected with the Renilla vector and assayed accordingly.
# [2] = tested on: mouse EpiSCs; experiment: Mouse EpiSC self-renewal culture; conditions: for EpiSC self-renewal / maintenance of undifferentiated state: CD1 mouse EpiSCs, GMEM/10% FBS, no FGF2/activin unless named, CHIR 3 μM, PD0325901 1 μM, XAV939 2 μM, IWR-1 2.5 μM, IWP-2 2.5 μM, Pyrvinium 100 nM
# Excerpt: We therefore reasoned that if CHIR induces EpiSC differentiation through stabilization of β-catenin, de-stabilization of β-catenin might promote EpiSC self-renewal. We tested this hypothesis by administering the tankyrase inhibitor XAV939 to mouse EpiSC cultures. XAV939-mediated inhibition of tankyrase stabilizes Axin, leading to the formation of the β-catenin destruction complex, composed of GSK3, Axin and adenomatous polyposis coli (APC) (Huang et al., 2009). […] EpiSCs cultured in CHIR/XAV could be routinely passaged by single-cell dissociation and replating onto gelatin-coated dishes, and could be cryo-preserved and recovered at high efficiency by standard techniques.
# final concentrations: CHIR99021 (3 μM), PD0325901 (1 μM), XAV939 (Sigma, 2 μM), IWR-1 (Sigma, 2.5 μM), IWP-2 (Stemgent, 2.5 μM), Pyrvinium (Sigma, 100 nM), recombinant human FGF2 (PeproTech, 10 ng/ml), and recombinant human activin A (PeproTech, 10 ng/ml). CHIR99021 and PD0325901 were synthesized in the Division of Signal Transduction Therapy, University of Dundee, UK.
# The basal medium for mouse EpiSC culture is the conventional mouse ESC medium, which consists of GMEM (Sigma) supplemented with 10% fetal bovine serum (FBS) (Hyclone), 2 mM L-glutamine (Invitrogen), 1 mM sodium pyruvate (Invitrogen), 1% nonessential amino acids (Invitrogen), and 0.1 mM (3-mercaptoethanol. Mouse EpiSCs were derived and maintained in the basal medium supplemented with FGF2/activin, CHIR/XAV, or CHIR/IWR-1. The basal medium for rat EpiSC culture is N2B27 (Tong et al., 2011), which was prepared by mixing 500 ml of DMEM/F12 (Invitrogen) with 500 ml of Neurobasal™ medium (Invitrogen), and adding 5 ml of N2 (Invitrogen), 10 ml of B27 (Invitrogen), 5 ml of Glutamax™ (Invitrogen), and 1 ml of 0.1 M β-mercaptoethanol (Sigma). The basal medium for human ESC culture consists of Knockout™ DMEM/F12 supplemented with 20% KSR (Invitrogen), 1% nonessential amino acids, 2 mM L-glutamine, and 0.1 mM (3-mercaptoethanol. Human ESCs were cultured in the basal medium supplemented with FGF2, CHIR/XAV, or CHIR/IWR-1.
# Post-implantation epiblasts were isolated from mouse or rat embryos and dissociated into small clumps as previously described (Chenoweth and Tesar, 2010). Epiblast fragments were placed into 4-well plates pre-coated with 0.1% gelatin (for mouse epiblasts) or pre-seeded with γ-irradiated mouse embryonic fibroblasts (MEFs) (for rat epiblasts) and cultured in either the FGF2/activin or the CHIR/XAV conditions. Emerging EpiSCs were trypsinized and expanded every 2-3 days at a subculture ratio of 1:4. Animal experiments were performed according to the investigator's protocols approved by the University of Southern California Institutional Animal Care and Use Committee.
# [3] = tested on: Axin2; experiment: Western blot of Axin2 in mouse EpiSCs; conditions: CD1 mouse EpiSCs treated 12 h
Structure (SMILES),TOPFlash reporter activity [1],self-renewal of β-catenin−/− EpiSCs overexpressing Axin2 ([2]; 3 μM CHIR after removal of FGF2/activin),"self-renewal of Axin1-overexpressing EpiSCs ([2]; Axin1-EpiSCs, CHIR after removal of FGF2/activin)","self-renewal of Axin2-overexpressing EpiSCs ([2]; Axin2-EpiSCs, CHIR alone after removal of FGF2/activin)",EpiSC self-renewal / maintenance of undifferentiated state [2],amount of Axin2 protein [3],effect on TOPFlash activity induced by CHIR ([1]; added to CHIR),"time EpiSCs remained undifferentiated ([2]; XAV939 alone, before passaging)"
"Cc1c[nH]c(-c2cnc(NCCNc3ccc(C#N)cn3)nc2-c2ccc(Cl)cc2Cl)n1 [CHIR99021, 6-((2-((4-(2,4-Dichlorophenyl)-5-(4-methyl-1H-imidazol-2-yl)pyrimidin-2-yl)amino)ethyl)amino)nicotinonitrile]",strongly induced,"differentiated after the removal of FGF2/activin, even in the presence of CHIR",rapidly differentiated,sufficient to support robust and long-term expansion of undifferentiated Axin2-EpiSCs,rapidly differentiated or died,elevated,–,–
"Oc1nc(-c2ccc(C(F)(F)F)cc2)nc2c1CSCC2 [XAV939, 3,5,7,8-Tetrahydro-2-[4-(trifluoromethyl)phenyl]-4H-thiopyrano[4,3-d]pyrimidin-4-one]",–,–,–,–,differentiated after passaging,significantly increased,abolished this TOPFlash™ activity,approximately 1 week

# Reference: patent US20130273649A1, “Culture medium for pluripotent stem cells” (UNIVERSITY OF SOUTHERN CALIFORNIA, priority 2012, published 2013)
